In assay [1] the target is T1, human vanin-1 (Homo sapiens (Human), UniProt O95497). Nature of the assay: Human Vanin-1 Enzyme Assay 1. Format: biochemical. As to conditions: 25 pM human vanin-1, 50 uM pantetheine 7-amino-4-trifluoromethylcoumarin, 30 min preincubation, 60 min. The procedure: Human Vanin-1 Enzyme Assay 1.
(§1) The in vitro assay measures enzymatic cleavage of the fluorescently-labeled vanin substrate, pantetheine 7-amino-4-trifluoromethylcoumarin, by human vanin-1.
(§2) The vanin-1 protein was prepared in-house from a construct expressing the extracellular domain of human vanin-1 (GenBank ID NM_004666) preceded N-terminally by the honey bee melittin signal peptide, a GSG linker sequence, a His6X tag and a FLAG tag. The secreted, soluble enzyme was purified from the conditioned medium from a CHO cell line stably expressing the resulting protein. Enzyme purification was performed through sequential Ni NTA and size-exclusion chromatography steps.
The test inhibitors were solubilized in DMSO to a stock concentration of 30 mM. On the day of the assay, dose response plates were prepared by diluting the inhibitors in DMSO at compound concentration 200-fold the final in-assay concentration. Intermediate concentrations were prepared by diluting in DMSO in a four-fold series for a total of 11 data points.
To prepare a working solution of human vanin-1, the enzyme was diluted to 33.3 pM in the assay buffer consisting of 50 mM Tris-HCl pH=8.0, 50 mM KCl, 0.005% Brij-35 and […] cysteamine. To begin the assay 100 nL was transferred from the compound plate to the assay plate. Next, 15 μL of the vanin-1 working solution were transferred to the assay plate. The inhibitor and enzyme were incubated at room temperature for 30 minutes. The enzyme reaction was then initiated by the addition of 5 μL of 200 μM pantetheine 7-amino-4-trifluoromethylcoumarin prepared in assay buffer. The final concentrations in the assay were 25 pM human vanin-1 and 50 uM substrate. The final concentration of DMSO was 0.5%. The assay plates were incubated for 60 minutes and before they were read on a Perkin Elmer EnVision Model 2103 using a 405 nm excitation wavelength and a 510 nm emission wavelength for detection.

Assay [2] deals with T1, human vanin-1. Nature of the assay: Human Vanin-1 Enzyme Assay 3. As to conditions: 2 nM human vanin-1, 10 uM substrate, 15 min. The assay is classed as biochemical. The procedure: Human Vanin-1 Enzyme Assay 3.
as §1, §2
On the day of the assay, dose response plates were prepared by diluting the inhibitors in DMSO at compound concentration 100-fold the final in-assay concentration. Concentration series were prepared by serially diluting in DMSO in a two-fold series for a total of 11 data points. Intermediate compound plates containing compound in 10% DMSO were then created by diluting the compounds 10-fold in assay buffer consisting of 50 mM Tris-HCl pH=8.0, 50 mM KCl, 0.005% Brij-35 and 1.5 mM cysteamine. To begin the assay 3 μL were transferred from the intermediate compound plate to the assay plate.
A working solution of human vanin-1 was prepared by diluting the enzyme stock to 2.5 nM in assay buffer. Next, 24 μL of the vanin-1 working solution were transferred to the assay plate. The enzyme reaction was then initiated by the addition of 3 μL of 100 μM pantetheine 7-amino-4-trifluoromethylcoumarin prepared in 5 uM acetic acid. The final concentrations in the assay were 2 nM human vanin-1 and 10 uM substrate. The final concentration of DMSO was 1%. The assay plates were incubated at room temperature for 15 minutes and before they were read on a Tecan Safire using a 405 nm excitation wavelength and a 505 nm emission wavelength for detection.

T1 sequence (O95497 22-491): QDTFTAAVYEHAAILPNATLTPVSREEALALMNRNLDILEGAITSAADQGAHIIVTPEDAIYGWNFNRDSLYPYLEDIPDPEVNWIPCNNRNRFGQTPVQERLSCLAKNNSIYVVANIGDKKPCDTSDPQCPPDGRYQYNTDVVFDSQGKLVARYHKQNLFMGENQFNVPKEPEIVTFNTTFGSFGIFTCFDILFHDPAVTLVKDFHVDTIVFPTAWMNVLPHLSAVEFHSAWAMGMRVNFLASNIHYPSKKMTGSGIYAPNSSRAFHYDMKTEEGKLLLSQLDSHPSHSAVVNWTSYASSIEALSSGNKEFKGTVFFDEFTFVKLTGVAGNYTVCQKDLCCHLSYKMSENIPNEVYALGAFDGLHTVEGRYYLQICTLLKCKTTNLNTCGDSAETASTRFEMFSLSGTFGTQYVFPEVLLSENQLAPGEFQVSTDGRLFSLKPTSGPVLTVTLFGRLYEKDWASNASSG

For `O=C(c1cnc(NCc2cccnc2)nc1)c1ccc(F)c(F)c1` [Example 22, (3,4-difluorophenyl){2-[(pyridin-3-ylmethyl)amino]pyrimidin-5-yl}methanone], the values for the IC50 in assay [1] and in assay [2] were 93.3 nM and 43.7 nM, respectively.

Consider `N#Cc1cccc(CNc2ncc(C(=O)c3cccc(Cl)c3)cn2)c1` [Example 26, 3-({[5-(3-chlorobenzoyl)pyrimidin-2-yl]amino}methyl) benzonitrile], for which the IC50 in assay [1] was 4170 nM; in assay [2], 63.2 nM.

In the case of `O=C(c1cnc(NCc2ccccc2)nc1)c1cccc(C(F)(F)F)c1` [Example 35, [2-(benzylamino)pyrimidin-5-yl][3-(trifluoromethyl)phenyl]methanone], the IC50 in assay [1] was found to be 242 nM; in assay [2], 20.5 nM.

As to `Cc1cccc(C(=O)c2cnc(NCc3ccncc3)nc2)c1` [Example 39, (3-methylphenyl){2-[(pyridin-4-ylmethyl)amino]pyrimidin-5-yl}methanone], the IC50 in assay [1] is 467 nM; in assay [2], 660 nM.

With `COc1ccc(CNc2ncc(C(=O)c3ccc(F)c(F)c3)cn2)cc1` [Example 41, (3,4-difluorophenyl){2-[(4-methoxybenzyl)amino]pyrimidin-5-yl}methanone], the results for the half-maximal inhibitory concentration (IC50) in assay [1] and in assay [2] were 4270 nM and 808 nM, respectively.

For the compound `Cc1cccc(C(=O)c2cnc(NCc3ccc(C#N)cc3)nc2)c1` [Example 42, 4-({[5-(3-methylbenzoyl)pyrimidin-2-yl]amino}methyl) benzonitrile], the IC50 stood at 1060 nM in assay [1] and 709 nM in assay [2].

On to `NC(=O)c1ccc(CNc2ncc(C(=O)c3ccc(F)c(F)c3)cn2)cc1` [Example 43, 4-({[5-(3,4-difluorobenzoyl)pyrimidin-2-yl]amino}methyl) benzamide], for which the IC50 in assay [1] was 2220 nM; in assay [2] it was 490 nM.

Take `CC(C)(Nc1ncc(C(=O)c2ccc(F)c(F)c2)cn1)c1ccccc1` [Example 44, (3,4-difluorophenyl){2-[(2-phenylpropan-2-yl)amino]pyrimidin-5-yl}methanone]: the results for the IC50 in assay [1] and in assay [2] were 508 nM and 105 nM, respectively.

On to `O=C(c1cnc(OCc2ccc(F)cc2)nc1)c1cccc(C(F)(F)F)c1` [Example 46, {2-[(4-fluorobenzyl)oxy]pyrimidin-5-yl}[3-(trifluoromethyl)phenyl]methanone], for which the IC50 was > 20000 nM in assay [1] and > 213 nM in assay [2].

In the case of `O=C(c1cnc(OCc2ccc(Cl)cc2)nc1)c1cccc(C(F)(F)F)c1` [Example 47, {2-[(4-chlorobenzyl)oxy]pyrimidin-5-yl}[3-(trifluoromethyl)phenyl]methanone], the IC50 in assay [1] is > 5130 nM; in assay [2], > 729 nM.

As for `N#Cc1cccc(CNc2ncc(C(=O)c3cccc(C(F)(F)F)c3)cn2)c1` [Example 62, 3-[({5-[3-(trifluoromethyl)benzoyl]pyrimidin-2-yl}amino)methyl] benzonitrile], the IC50 in assay [1] is 150 nM; in assay [2], > 123 nM.

With `N#Cc1cccc(CNc2ncc(C(=O)c3cccc(C#N)c3)cn2)c1` [Example 64, 3-({[5-(3-cyanobenzoyl)pyrimidin-2-yl]amino}methyl) benzonitrile], the figures for the IC50 in assay [1] and in assay [2] were 99.2 nM and 74.4 nM, respectively.

For the compound `NC(=O)c1ccc(CNc2ncc(C(=O)c3cccc(C(F)(F)F)c3)cn2)cn1` [Example 69, 5-[({5-[3-(trifluoromethyl)benzoyl]pyrimidin-2-yl}amino)methyl] pyridine-2-carboxamide], the IC50 in assay [1] came out at 29.4 nM; in assay [2], 46.8 nM.

For `COc1ccc(COc2ncc(C(=O)c3cccc(C(F)(F)F)c3)cn2)cc1` [Example 157, {2-[(4-methoxybenzyl)oxy]pyrimidin-5-yl}[3-(trifluoromethyl)phenyl]methanone], the IC50 in assay [2] is > 2340 nM.

`O=C(c1cnc(OCc2ccc(OC(F)(F)F)cc2)nc1)c1cccc(C(F)(F)F)c1` [Example 158, (2-{[4-(trifluoromethoxy)benzyl]oxy}pyrimidin-5-yl)[3-(trifluoromethyl)phenyl]methanone]: the IC50 in assay [2] was > 2890 nM.

These data come from patent publication US10308615B2, “Heterocyclic compounds as inhibitors of Vanin-1 enzyme” (Pfizer Inc., priority 2015, dated 2019).
